In patent publication US5736565A, “Therapeutic compounds suitable for the treatment of diseases connected with glutathione deficiency, process for their preparation, and pharmaceutical compositions containing same” (Prospa B.V., priority 1992, dated 1998):
Entries after “also recorded” stand apart in the source; their conditions may differ. Peptide text beside a SMILES is read from it.

Experiments:
splenocytes = experiment: Blastization with concavaline A (ConA) on splenocytes of PSC-treated young and old rats; assay type: in vivo, Sprague-Dawley rats
Description: Sprague-Dawley rats (Charles River, Calco (CO)), aged 10 weeks (young adults) and 24 months (old), were stabled under standard conditions (24°±1° C., 12 h light/dark cycle, free access to food and water). Handlings were made in such a way as to avoid stressful stimuli.
The animals were stabled in groups of 6 per cage and treated for 2 weeks (15 days) with a PSC daily dose of 600 mg/kg by intraperitoneal route (i.p.).
Once the treatment with PSC previously described in the paragraph "Animals" was completed, the animals were sacrificed by decapitation, spleens were excised under sterile conditions and broken up in a Petri dish. The splenocytes thus obtained by mechanical dispersion were placed in culture medium RPMI 1640 with addition of calf fetal serum (FBS) (10%).
The resulting cellular suspension was centrifuged at 2500 rpm for 20 min on Ficoll-Paque gradient. Stratified splenocytes were taken by a sterile Pasteur pipette and washed three times with sterile FBS. Cells were counted and placed onto 96-well plastic plates at a concentration of 1×10^5 /well in of volume of 0.1 ml. The cultures thus obtained were incubated for 48 hrs at 37° C., in a […] environment. Forty-eight hours later, concavaline A (ConcA) was added to the cultures at a concentration of 1 μg/ml in a volume of 0.1 ml. Eighteen hours later, tritiated thymidine was added (volume: 10 μl). Incorporation of tritiated thymidine was stopped after 3 hrs, by elimination of excess liquid by suction and by sucking the cells on fibreglass filters. Filters were placed in scintillation vials containing 5 ml of scintillating solution (Insta-Gel). Radioactivity (dpm) was measured during 2 min using a β-counter.
The results obtained on groups treated with ConA alone (controls), on groups treated with PSC (600 mg/kg), and on groups that had not been treated either with ConA or PSC are compared in Table 13.

[1] = system: murine fibrosarcoma cells (WEHI 164 clone 13); experiment: Transplantable neoplasms: murine fibrosarcoma tumoral mass growth in BALB/c mice; assay type: in vivo
Description: Male adult BALB/c mice weighing 20 g were stabled under standard conditions (24°±1° C., 12 h light/dark cycle, free access to food and water). Handlings were made in such a way as to avoid stressful stimuli.
All animals, subdivided into groups of 6, were treated 4 weeks with a PSC dose (600 mg/kg). After a 2 week treatment, the mice were inoculated intramuscularly (i.m.) with murine fibrosarcoma WEHI 164 clone 13 cells or Lewis lung carcinoma in an amount of 1×10^5 cells. Treatment was continued two weeks after tumour inoculation. The mice were sacrificed and the tumoral mass growth and the development of metastases, if any, were evaluated.

[2] = system: reactive oxygen species (ROS) production of human spermatozoa; experiment: Effect of PSC on the spermatic production of free radicals (chemiluminescence with luminol); assay type: cell-based
Text: Free radicals production was investigated under basal and maximal conditions (after A23187 addition) on controls and in the presence of PSC.
A23187 is an ionophore bivalent cation that, under physiological conditions, promotes acrosomial reaction. It is used being capable of stimulating the production of superoxide radicals (Aitken R. J. et al., Generation of reactive oxygen species, lipid peroxidation and human sperm function, J. of Reproduction, 40, 183-197, 1989).
Seminal fluid was obtained from 11 donors previously subjected to a complete medical check-up, to exclude the presence, if any, of sexual transmission diseases. Samples were obtained by masturbation and analysed within 1.5 hrs thereafter.
Spermatozoa were separated from seminal fluid by three centrifugation cycles (500×g for 5 min) and resuspended in medium BWW (Biggers et al., "The culture of mouse embryos in vitro", Daniel J. C. ed., Methods in mammalian embryology, 86-116, 1971) at a concentration of 20×10^6 /ml.
The production of reactive oxygen species (ROS) was evaluated by chemiluminescence with luminol: human spermatozoa suspensions at a concentration of […] in a volume of 500 μl were subjected to the action of luminol (LM 100 mmol/l in dimethyl sulphoxide).Said spermatic suspension was then diluted with 500 μl of medium BWW alone (control) or containing PSC (10 mM); other spermatic suspensions contained A23187 (0.05 mg/ml) alone (positive control) and, respectively, A23187 (0.05 mg/ml)+PSC (10 mM).
3 Minutes later, the chemiluminescent signal was recorded. Reactive oxygen species (ROS) production was expressed as photons brust (cpm) recorded by a luminometer Berthold L 9500.

[3] = system: malonic aldehyde (MDA) in brain; experiment: PSC effect on lipid peroxidation (MDA) in rat SNC; assay type: in vivo, male Wistar rats; conditions: old animals, 100 mg/kg i.p.
Text: Since lipid peroxidation, i.e. the oxidation of an α-methylenic bridge of a polyunsaturated fatty acid, is a process that, through the formation of intermediates (such as lipid peroxides and hydroperoxides), provide carbonyl fragments, including malonic aldehyde (MDA), efforts were made by the Applicant to check whether administration of the test molecule might reduce MDA levels in the SNC, which are closely related to the presence of free radicals and, consequently, to a potential neuronal damage, which is strongly responsible for the induction of age-related alterations.
The test was carried out on male Wistar rats stabled in groups of 5/cage, at 21° C. and constant light/dark cycle, fed with standard laboratory food.
[…] was assayed both on young and old rats, prior to and after treatment with PSC (100 mg/kg). A few hours after treatment, all animals were sacrificed and their brain readily excised. MDA was determined by a micromethod modified according to Slater and Sawyer (Slater T. F. and Sawyer B. C., 1971, J. Biochem., Tokio 8: 2180). The tissue was maintained 10 min. at 0° C. in 0.05M Tris-HCl buffer, pH 7.4, and homogenized. […] After cooling, the absorbance at 532 nm was recorded by a spectrophotometer. […] Proteins were measured by Smith's method using, as a reagent, bicinchoninic acid (BCA) (Smith et al., 1985, Anal. Biochem., 27, 502).

[4] = Behaviour and death rate of the test groups under PSC treatment; conditions: in vivo

CC(=O)SC[C@H](NC(=O)[C@@H]1CCC(=O)N1)C(=O)O [PSC, 2-(S)-(2-pyrrolidone-5-(S)-carbonyl amido)-3-acetylmercapto propionic acid] (HELM PEPTIDE1{[Glp].C}|PEPTIDE2{[ac]}$PEPTIDE1,PEPTIDE2,2:R3-1:R2$$$V2.0)
splenocytes blastization induced by ConA (in words) (splenocytes; 600 mg/kg): showed a significant increase in splenocytes blastization induced by ConA
blastization (tritiated thymidine incorporation), Young (splenocytes; 600 mg/kg i.p. 15 days + ConA): 1488 ± 62 DPM × 100
blastization (tritiated thymidine incorporation), Old (splenocytes; 600 mg/kg i.p. 15 days + ConA, *P < 0.05): 1250 ± 11 DPM × 100
tumoural growth, fibrosarcoma (in words) ([1]; 600 mg/kg): prevented tumoural growth; also recorded: significantly slows down the growth of fibrosarcomatous tumours in the rat
Tumoral mass diameter, 15th day ([1]; 600 mg/kg i.p., 30 days' treatment): 0.6 ± 0.03 cm
free radicals production (in words) ([2]; basal and maximal conditions): caused a significant reduction in free radicals production
ROS production, photons brust ([2]; medium + A23187 (0.05 mg/ml) + PSC (10 mM)): 270.8 +/- 254 cpm
ROS production, photons brust ([2]; medium + PSC (10 mM), basal): 243.7 +/- 235.2 cpm
MDA [3]: 0.723 +/- 0.32 nmols/mg proteins
behaviour and death rate of the test groups (in words) [4]: did not significantly affect the behaviour and death rate of the various test groups
death in tested groups (in words) [4]: no death occurred in all tested groups
